Patent US20080139664A1, “ANTI-GLYCATION AGENTS FOR PREVENTING AGE-, DIABETES-, AND SMOKING-RELATED COMPLICATIONS” (NATIONAL RESEARCH COUNCIL OF CANADA, priority 2001, published 2008)
Read-outs that look alike come from different tables or passages of the source.

Assays:
[1] = tested on: bovine serum albumin (BSA); test: Fluorescamine assay of free primary amino groups of BSA incubated with D-ribose; assay type: biochemical; settings: free primary amino group on BSA after 5 days at 37° C.; agent at 16.8 times IC50; 64% without agent
Protocol: Fluorescamine assay (Yeboah F. et al., J. Agric. Food Chem. 48, 2766-2774 (2000)) was performed on incubated mixtures of BSA and D-ribose, with or without the identified anti-glycation agents. The mixtures contained BSA (0.075 mM protein concentration or 4.53 mM of Lys residue concentration) and D-ribose (50 mM). […] The fluorescamine assay determines the number of free lysine residues of BSA. In this experiment, the final volume of the incubation mixtures was 10 mL and the incubation time was 5 days at 37° C. Prior to the fluorescamine assay, the proteins were isolated by reverse phase HPLC. The protein content was determined using the Bio-Rad protein determination reagent (Bradford method). The fluorescamine assay was done in triplicate.

lysozyme = test: ESI-MS of lysozyme glycoforms after incubation with D-ribose; settings: 37° C., 5 days; for Peak area as % of total area of all glycoforms, 14,569: lysozyme + 2D-ribose − 2H2O (14,569 Da); for Peak area as % of total area of all glycoforms, 14,551: lysozyme + 2D-ribose − 3H2O (14,551 Da); for Peak area as % of total area of all glycoforms, 14,533: lysozyme + 2D-ribose − 5H2O (14,533 Da); for Peak area as % of total area of all glycoforms, 14,515: lysozyme + 2D-ribose − 6H2O (14,515 Da); for Peak area as % of total area of all glycoforms, 14,419: lysozyme + D-ribose − 2H2O (14,419 Da); for Peak area as % of total area of all glycoforms, 14,401: lysozyme + D-ribose − 3H2O (14,401 Da); for Peak area as % of total area of all glycoforms, 14,437: lysozyme + D-ribose − H2O (14,437 Da); for Peak area as % of total area of all glycoforms, 14,496: lysozyme + D-ribose − H2O with one carboxymethylated Lys residue (14,496 Da); for Peak area as % of total area of all glycoforms, 14,364: lysozyme with one carboxymethylated Lys residue (14,364 Da); for Peak area as % of total area of all glycoforms, 14,305: unmodified lysozyme (14,305 Da);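 on all read-outs here: lysozyme incubated with D-ribose, with or without anti-glycation agents, then separated by reversed-phase HPLC and analysed by electrospray mass spectrometry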
[2] = tested on: bovine serum albumin (BSA); test: Maillard fluorescence-based assay of AGEs formation, IC50 determination (BSA + D-ribose); settings: for IC50: inhibition of Maillard fluorescence development, 0.075 mM BSA, 50 mM D-ribose, 37° C., 5 days
Protocol: (§1) During the glycation reaction between proteins and reducing sugars, a specific fluorescence with excitation and emission wavelength of 370 nm and 440 nm, respectively, is observed. […] The assay was based on the progressive development of the characteristic Maillard fluorescence (370 nm Ex and 440 nm Em) during the progress of the glycation reaction.
(§2) The final assay volume was 200 μl and each assay well contained 0.075 mM BSA, and 50 mM D-ribose. Compounds were assayed at 3 different concentration levels (0.003, 0.03, and 0.3 mg/mL) to determine the effect of concentration on inhibition. Samples were incubated for 5 days.
(§3) The Maillard fluorescence was directly measured from the reaction solution, except for the anti-glycants that quenched the Maillard fluorescence, which were analyzed by the earlier-described HPLC method.
(§4) Solutions were incubated in microtitre plates (96 wells) at 37° C. for 5 days in a closed system.
(§5) After one hour incubation at 37° C., fluorescence readings were taken.
(§6) The IC50 values of the compounds that quenched the fluorescence of the glycated BSA were analyzed by on-line monitoring of the fluorescence of the glycated BSA separated from the fluorescence quenching assay compound by RP-HPLC. The elution profile was monitored by UV-diode array and by fluorescence (λex=370 nm, λem=440 nm). […] The incubation conditions were the same as above.

[3] = tested on: bovine serum albumin (BSA)
Protocol: as §1, §2, §3, §4, §5, §6

Structure (SMILES)	Unreacted amino group [1] [%]	Peak area as % of total area of all glycoforms, 14,569 (lysozyme) [%]	Peak area as % of total area of all glycoforms, 14,551 (lysozyme) [%]	Peak area as % of total area of all glycoforms, 14,533 (lysozyme) [%]	Peak area as % of total area of all glycoforms, 14,515 (lysozyme) [%]	Peak area as % of total area of all glycoforms, 14,419 (lysozyme) [%]	Peak area as % of total area of all glycoforms, 14,401 (lysozyme) [%]	Peak area as % of total area of all glycoforms, 14,437 (lysozyme) [%]	Peak area as % of total area of all glycoforms, 14,496 (lysozyme) [%]	Peak area as % of total area of all glycoforms, 14,364 (lysozyme) [%]	Peak area as % of total area of all glycoforms, 14,305 (lysozyme) [%]	IC50 [2] [µM]	maximum percentage of the inhibition ([2]; Maillard fluorescence, listed if significantly lower than 100%) [%)]	IC50 [3] [µM]
O=c1cc(-c2ccccc2O)oc2cc(O)cc(O)c12 [5,7,2′-Trihydroxyflavone]	53	4.3	4.8	2.3	1.7	9.3	1.6	19.8	0.0	5.8	46.7	220	–	–
O=c1cc(-c2cc(O)c(O)c(O)c2)oc2cc(O)cc(O)c12 [5,7,3′,4′,5′-Pentahydroxyflavone]	54	4.3	4.3	1.7	0.7	8.6	0.2	20.6	0.0	2.2	55.0	210	–	–
O=c1cc(-c2ccc(O)c(O)c2)oc2c(O)c(O)ccc12 [7,8,3′,4′-Tetrahydroxyflavone]	56	1.6	0.6	0.0	0.0	3.0	0.0	15.9	0.8	2.0	76.2	150	–	–
Oc1cc(O)c2c(c1)O[C@H](c1ccc(O)c(O)c1)[C@@H](O)C2 [(+)-Catechin]	66	2.8	1.4	1.2	0.0	4.0	0.0	19.7	0.0	2.0	68.9	19	–	–
Oc1cc(O)c2c(c1)O[C@H](c1ccc(O)c(O)c1)[C@H](O)C2 [(−)-Epicatechin]	57	1.7	0.0	0.0	0.0	2.6	0.0	17.6	0.0	1.8	76.3	58	–	–
O=C(O[C@@H]1Cc2c(O)cc(O)cc2O[C@@H]1c1cc(O)c(O)c(O)c1)c1cc(O)c(O)c(O)c1 [(−)-Epigallocatechin gallate]	58	2.9	0.8	1.7	0.0	2.6	0.0	20.9	0.0	2.0	69.1	48	55	–
C[C@](N)(Cc1ccc(O)c(O)c1)C(=O)O [L-α-Methyl-DOPA]	47	2.7	0.5	0.1	0.5	1.5	2.1	18.3	1.0	3.5	69.4	–	–	73
O=C1C=C(O)C(=O)c2ccccc21 [Lawsone]	44	0.0	0.0	0.9	0.8	4.9	0.0	9.5	0.0	7.5	74.3	–	–	190
O=c1cc(-c2ccc(O)c(O)c2)oc2cc(O)cc(O)c12 [Luteolin]	60	5.2	3.0	3.9	1.4	6.3	2.1	21.2	0.8	1.1	51.4	–	–	60
CS(=O)(=O)Nc1ccc([N+](=O)[O-])cc1Oc1ccccc1 [Nimesulide]	69	5.2	3.8	2.3	1.3	7.6	0.0	22.6	0.0	3.4	49.8	–	–	350
Cc1ncc([N+](=O)[O-])n1CC(O)CCl (stereo not shown) [Ornidazole]	60	4.8	3.4	2.0	0.9	6.7	0.0	23.4	0.0	3.2	54.2	–	–	570
CCCOC(=O)c1cc(O)c(O)c(O)c1 [Propyl gallate]	28	0.0	0.0	0.0	0.0	1.3	0.0	7.7	0.0	4.4	86.6	–	–	330
C[C@@](Cc1ccc(O)c(O)c1)(NN)C(=O)O [S(−)-Carbidopa]	89	0.0	2.4	0.8	0.6	3.2	2.0	18.4	0.9	3.7	67.9	–	–	140
